Results taken from the kinase profiling compilation of Christmann-Franck et al. (2016).

Key:
Assay in all cases: radiometric filter-binding kinase assay, Kinase HotSpot
Settings in all cases: compound 0.5 µM; ATP 10 µM
NEK11 (human) = NEK11 (human) (UniProt Q8NG66)
DSTYK (human) = DSTYK (human) (UniProt Q6XUX3)
PAK7 (human) = PAK7 (human) (UniProt Q9P286)
ROCK2 (human) = ROCK2 (human) (UniProt O75116)
CAMK2B (human) = CAMK2B (human) (UniProt Q13554)
[1] = test system: FLT4 (human), P35916 [Q890H]
FYN (human) = FYN (human) (UniProt P06241)
ACVRL1 (human) = ACVRL1 (human) (UniProt P37023)
[2] = test system: MAP2K6 (human), P52564 [S207E/T211E]
DYRK4 (human) = DYRK4 (human) (UniProt Q9NR20)
AKT1 (human) = AKT1 (human) (UniProt P31749)
MAPK8 (human) = MAPK8 (human) (UniProt P45983)
ZAP70 (human) = ZAP70 (human) (UniProt P43403)
STK24 (human) = STK24 (human) (UniProt Q9Y6E0)
MAP4K5 (human) = MAP4K5 (human) (UniProt Q9Y4K4)
MERTK (human) = MERTK (human) (UniProt Q12866)
ITK (human) = ITK (human) (UniProt Q08881)
MINK1 (human) = MINK1 (human) (UniProt Q8N4C8)
FGFR3 (human) = FGFR3 (human) (UniProt P22607)
ABL2 (human) = ABL2 (human) (UniProt P42684)
PAK4 (human) = PAK4 (human) (UniProt O96013)
CLK1 (human) = CLK1 (human) (UniProt P49759)
MAP3K5 (human) = MAP3K5 (human) (UniProt Q99683)
PTK2B (human) = PTK2B (human) (UniProt Q14289)
PHKG1 (human) = PHKG1 (human) (UniProt Q16816)
DYRK2 (human) = DYRK2 (human) (UniProt Q92630)
CDK2 CCNA2 (human) = CDK2 CCNA2 (human) (UniProt P24941+P20248)
STK11 (human) = STK11 (human) (UniProt Q15831)
[3] = biological target: TYK2 JH1 catalytic (human) (UniProt P29597)
RPS6KA6 KD1 KD2 (human) = RPS6KA6 KD1 KD2 (human) (UniProt Q9UK32)
MAPK3 (human) = MAPK3 (human) (UniProt P27361)
GRK7 (human) = GRK7 (human) (UniProt Q8WTQ7)
WNK2 (human) = WNK2 (human) (UniProt Q9Y3S1)
MAPK14 (human) = MAPK14 (human) (UniProt Q16539)
NUAK1 (human) = NUAK1 (human) (UniProt O60285)
STK10 (human) = STK10 (human) (UniProt O94804)
FRK (human) = FRK (human) (UniProt P42685)
STK25 (human) = STK25 (human) (UniProt O00506)
FGFR1 (human) = FGFR1 (human) (UniProt P11362)
CAMK2A (human) = CAMK2A (human) (UniProt Q9UQM7)
BRSK1 (human) = BRSK1 (human) (UniProt Q8TDC3)
NEK2 (human) = NEK2 (human) (UniProt P51955)

FGFR3 (human), sequence (P22607 whole entry, looked up): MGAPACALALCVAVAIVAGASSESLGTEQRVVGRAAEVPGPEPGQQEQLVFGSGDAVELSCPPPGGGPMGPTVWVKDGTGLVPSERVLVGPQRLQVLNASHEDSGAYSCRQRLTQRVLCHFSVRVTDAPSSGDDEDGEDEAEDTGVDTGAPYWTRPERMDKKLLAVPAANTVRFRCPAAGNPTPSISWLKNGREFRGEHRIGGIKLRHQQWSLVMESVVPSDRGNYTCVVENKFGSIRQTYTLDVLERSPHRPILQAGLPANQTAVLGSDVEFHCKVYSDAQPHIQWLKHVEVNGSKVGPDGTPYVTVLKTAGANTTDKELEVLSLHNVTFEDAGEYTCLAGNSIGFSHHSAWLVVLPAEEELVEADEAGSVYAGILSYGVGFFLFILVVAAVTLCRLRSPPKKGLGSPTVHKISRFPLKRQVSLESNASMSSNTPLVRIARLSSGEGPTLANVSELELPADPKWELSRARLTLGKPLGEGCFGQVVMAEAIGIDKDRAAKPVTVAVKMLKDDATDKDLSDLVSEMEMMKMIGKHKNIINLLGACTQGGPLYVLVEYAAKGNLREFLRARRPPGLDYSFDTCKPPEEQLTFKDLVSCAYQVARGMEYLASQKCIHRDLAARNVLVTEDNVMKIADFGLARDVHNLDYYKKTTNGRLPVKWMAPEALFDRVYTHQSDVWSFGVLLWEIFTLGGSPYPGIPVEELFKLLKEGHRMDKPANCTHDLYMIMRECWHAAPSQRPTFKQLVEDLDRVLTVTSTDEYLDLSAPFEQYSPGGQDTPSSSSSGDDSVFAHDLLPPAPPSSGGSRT
WNK2 (human), sequence (Q9Y3S1 whole entry, looked up): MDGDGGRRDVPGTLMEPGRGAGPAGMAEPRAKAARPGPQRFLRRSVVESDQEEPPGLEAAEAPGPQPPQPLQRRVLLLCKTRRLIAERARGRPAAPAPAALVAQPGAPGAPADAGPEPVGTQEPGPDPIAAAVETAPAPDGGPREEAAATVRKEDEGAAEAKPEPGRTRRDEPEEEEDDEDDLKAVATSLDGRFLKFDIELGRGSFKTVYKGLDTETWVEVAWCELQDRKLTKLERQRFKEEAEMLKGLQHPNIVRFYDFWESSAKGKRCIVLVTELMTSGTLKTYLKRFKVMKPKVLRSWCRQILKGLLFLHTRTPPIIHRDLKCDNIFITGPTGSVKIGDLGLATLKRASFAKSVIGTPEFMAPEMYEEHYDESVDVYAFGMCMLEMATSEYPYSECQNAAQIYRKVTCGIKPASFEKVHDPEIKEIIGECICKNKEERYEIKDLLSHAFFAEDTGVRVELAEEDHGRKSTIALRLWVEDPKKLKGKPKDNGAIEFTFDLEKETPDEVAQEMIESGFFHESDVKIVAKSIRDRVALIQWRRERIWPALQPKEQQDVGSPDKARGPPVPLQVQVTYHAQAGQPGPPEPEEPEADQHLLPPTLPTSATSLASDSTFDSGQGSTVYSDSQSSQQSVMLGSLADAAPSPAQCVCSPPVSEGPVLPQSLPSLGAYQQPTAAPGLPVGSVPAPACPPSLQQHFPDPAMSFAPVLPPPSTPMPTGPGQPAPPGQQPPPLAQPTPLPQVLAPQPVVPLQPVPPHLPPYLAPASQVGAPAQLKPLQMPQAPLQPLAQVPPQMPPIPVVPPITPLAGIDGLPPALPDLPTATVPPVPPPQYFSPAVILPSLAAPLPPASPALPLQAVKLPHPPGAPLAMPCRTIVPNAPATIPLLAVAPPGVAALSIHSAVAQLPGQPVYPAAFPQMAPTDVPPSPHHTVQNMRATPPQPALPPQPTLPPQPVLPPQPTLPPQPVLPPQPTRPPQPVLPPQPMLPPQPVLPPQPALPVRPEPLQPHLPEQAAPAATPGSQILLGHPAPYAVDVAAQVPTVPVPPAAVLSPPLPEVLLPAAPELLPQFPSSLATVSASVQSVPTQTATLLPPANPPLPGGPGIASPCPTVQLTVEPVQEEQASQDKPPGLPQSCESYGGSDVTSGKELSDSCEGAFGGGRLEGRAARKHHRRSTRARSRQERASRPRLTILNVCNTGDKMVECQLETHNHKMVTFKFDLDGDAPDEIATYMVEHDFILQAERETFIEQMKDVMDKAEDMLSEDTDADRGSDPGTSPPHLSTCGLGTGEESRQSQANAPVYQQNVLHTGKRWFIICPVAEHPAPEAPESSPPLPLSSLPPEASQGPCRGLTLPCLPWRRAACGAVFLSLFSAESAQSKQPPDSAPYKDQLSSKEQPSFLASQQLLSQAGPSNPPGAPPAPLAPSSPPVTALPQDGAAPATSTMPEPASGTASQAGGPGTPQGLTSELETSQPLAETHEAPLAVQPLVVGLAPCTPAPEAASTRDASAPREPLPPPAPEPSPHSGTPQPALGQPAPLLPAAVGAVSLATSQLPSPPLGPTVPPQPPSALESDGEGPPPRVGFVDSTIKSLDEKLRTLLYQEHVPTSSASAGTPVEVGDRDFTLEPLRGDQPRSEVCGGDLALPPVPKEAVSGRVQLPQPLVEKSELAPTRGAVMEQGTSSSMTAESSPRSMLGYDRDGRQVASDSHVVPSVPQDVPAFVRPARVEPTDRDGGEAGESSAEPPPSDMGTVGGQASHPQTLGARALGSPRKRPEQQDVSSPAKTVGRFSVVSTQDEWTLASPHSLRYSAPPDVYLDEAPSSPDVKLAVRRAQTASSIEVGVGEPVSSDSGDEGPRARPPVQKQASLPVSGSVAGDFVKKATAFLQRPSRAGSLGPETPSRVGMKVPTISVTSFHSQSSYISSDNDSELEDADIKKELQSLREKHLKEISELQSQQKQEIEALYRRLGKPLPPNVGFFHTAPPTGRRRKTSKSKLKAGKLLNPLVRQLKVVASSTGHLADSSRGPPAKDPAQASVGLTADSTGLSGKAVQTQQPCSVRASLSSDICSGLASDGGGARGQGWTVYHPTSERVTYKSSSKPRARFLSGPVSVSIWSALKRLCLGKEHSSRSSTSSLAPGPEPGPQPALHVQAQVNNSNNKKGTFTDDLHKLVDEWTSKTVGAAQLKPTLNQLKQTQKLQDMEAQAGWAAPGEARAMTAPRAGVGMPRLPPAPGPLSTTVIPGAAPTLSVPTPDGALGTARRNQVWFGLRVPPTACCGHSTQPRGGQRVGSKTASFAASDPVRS
FRK (human), sequence (P42685 whole entry, looked up): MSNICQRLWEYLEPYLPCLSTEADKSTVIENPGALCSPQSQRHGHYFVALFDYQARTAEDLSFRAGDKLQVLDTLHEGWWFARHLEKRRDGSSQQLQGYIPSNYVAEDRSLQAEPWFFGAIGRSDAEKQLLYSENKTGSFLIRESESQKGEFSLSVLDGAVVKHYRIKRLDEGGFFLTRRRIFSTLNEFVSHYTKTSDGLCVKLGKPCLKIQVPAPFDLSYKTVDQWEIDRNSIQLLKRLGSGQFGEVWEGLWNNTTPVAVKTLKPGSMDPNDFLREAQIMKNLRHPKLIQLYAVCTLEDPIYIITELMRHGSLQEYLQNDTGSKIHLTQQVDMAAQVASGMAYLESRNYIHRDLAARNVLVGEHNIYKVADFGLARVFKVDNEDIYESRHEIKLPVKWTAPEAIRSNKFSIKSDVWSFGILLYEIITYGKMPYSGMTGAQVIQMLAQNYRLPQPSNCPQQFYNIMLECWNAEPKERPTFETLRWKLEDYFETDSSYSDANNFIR
GRK7 (human), sequence (Q8WTQ7 whole entry, looked up): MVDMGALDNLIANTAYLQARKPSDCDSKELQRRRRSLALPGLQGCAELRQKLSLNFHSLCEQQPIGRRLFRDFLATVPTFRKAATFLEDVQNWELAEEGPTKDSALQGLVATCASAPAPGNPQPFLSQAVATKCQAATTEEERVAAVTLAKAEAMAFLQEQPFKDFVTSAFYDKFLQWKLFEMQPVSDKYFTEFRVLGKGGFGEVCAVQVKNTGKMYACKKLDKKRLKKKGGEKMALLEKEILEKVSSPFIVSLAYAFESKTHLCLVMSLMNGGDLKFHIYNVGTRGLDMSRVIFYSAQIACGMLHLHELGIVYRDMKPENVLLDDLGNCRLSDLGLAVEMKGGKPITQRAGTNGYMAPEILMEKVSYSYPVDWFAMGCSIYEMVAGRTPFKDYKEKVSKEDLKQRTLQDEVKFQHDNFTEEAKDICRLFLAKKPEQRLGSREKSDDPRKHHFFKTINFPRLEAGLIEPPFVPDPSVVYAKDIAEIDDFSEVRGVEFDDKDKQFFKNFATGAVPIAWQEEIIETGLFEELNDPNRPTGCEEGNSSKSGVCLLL
MAPK3 (human), sequence (P27361 whole entry, looked up): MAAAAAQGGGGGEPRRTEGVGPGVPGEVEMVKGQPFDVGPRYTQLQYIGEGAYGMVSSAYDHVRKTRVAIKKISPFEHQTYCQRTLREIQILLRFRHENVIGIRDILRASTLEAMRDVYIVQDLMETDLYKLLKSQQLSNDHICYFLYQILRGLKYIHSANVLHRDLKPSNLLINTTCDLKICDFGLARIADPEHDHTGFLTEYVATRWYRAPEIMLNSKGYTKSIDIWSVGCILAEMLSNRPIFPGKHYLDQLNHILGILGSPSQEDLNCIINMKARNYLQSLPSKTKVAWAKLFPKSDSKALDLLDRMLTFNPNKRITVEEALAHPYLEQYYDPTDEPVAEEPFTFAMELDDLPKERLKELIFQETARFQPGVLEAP
CLK1 (human), sequence (P49759 whole entry, looked up): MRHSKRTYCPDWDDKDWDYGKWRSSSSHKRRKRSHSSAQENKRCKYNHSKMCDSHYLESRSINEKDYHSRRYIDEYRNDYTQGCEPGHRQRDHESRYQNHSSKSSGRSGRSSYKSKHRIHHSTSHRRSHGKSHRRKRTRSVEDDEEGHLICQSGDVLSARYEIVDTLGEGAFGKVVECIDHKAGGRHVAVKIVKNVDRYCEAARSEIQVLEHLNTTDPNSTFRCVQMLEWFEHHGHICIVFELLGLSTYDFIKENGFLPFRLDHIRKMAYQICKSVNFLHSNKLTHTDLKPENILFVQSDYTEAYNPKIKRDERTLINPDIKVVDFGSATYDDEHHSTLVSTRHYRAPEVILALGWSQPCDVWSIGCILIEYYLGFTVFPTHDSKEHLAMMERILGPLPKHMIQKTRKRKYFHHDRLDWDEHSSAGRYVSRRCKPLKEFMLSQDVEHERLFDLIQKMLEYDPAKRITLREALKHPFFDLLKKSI

SMILES: Cc1nc(-c2ccccc2)c(-c2ccncc2)o1
- residual activity (NEK11 (human)): 76.7%
- residual activity (DSTYK (human)): 91%
- residual activity (PAK7 (human)): 96.1%
- residual activity (ROCK2 (human)): 97.6%
- residual activity (CAMK2B (human)): 95.9%
- residual activity [1]: 108%
- residual activity (FYN (human)): 99.8%
- residual activity (ACVRL1 (human)): 95.9%
- residual activity [2]: 99.3%
- residual activity (DYRK4 (human)): 91.2%
- residual activity (AKT1 (human)): 102%
- residual activity (MAPK8 (human)): 99.5%
- residual activity (ZAP70 (human)): 98.8%
- residual activity (STK24 (human)): 96.7%
- residual activity (MAP4K5 (human)): 96.2%
- residual activity (MERTK (human)): 85.6%
- residual activity (ITK (human)): 97.1%
- residual activity (MINK1 (human)): 97.9%
- residual activity (FGFR3 (human)): 95.6%
- residual activity (ABL2 (human)): 92.8%
- residual activity (PAK4 (human)): 101%
- residual activity (CLK1 (human)): 105%
- residual activity (MAP3K5 (human)): 102%
- residual activity (PTK2B (human)): 100%
- residual activity (PHKG1 (human)): 96.1%
- residual activity (DYRK2 (human)): 98.6%
- residual activity (CDK2 CCNA2 (human)): 104%
- residual activity (STK11 (human)): 98.4%
- residual activity [3]: 109%
- residual activity (RPS6KA6 KD1 KD2 (human)): 115%
- residual activity (MAPK3 (human)): 103%
- residual activity (GRK7 (human)): 98.3%
- residual activity (WNK2 (human)): 101%
- residual activity (MAPK14 (human)): 76.3%
- residual activity (NUAK1 (human)): 100%
- residual activity (STK10 (human)): 96.9%
- residual activity (FRK (human)): 103%
- residual activity (STK25 (human)): 104%
- residual activity (FGFR1 (human)): 90.9%
- residual activity (CAMK2A (human)): 104%
- residual activity (BRSK1 (human)): 99.8%
- residual activity (NEK2 (human)): 116%

SMILES: c1ccc2c(-c3ccncc3)c[nH]c2c1
- residual activity (NEK11 (human)): 76.9%
- residual activity (DSTYK (human)): 95.9%
- residual activity (PAK7 (human)): 93.8%
- residual activity (ROCK2 (human)): 71.9%
- residual activity (CAMK2B (human)): 90.5%
- residual activity [1]: 119%
- residual activity (FYN (human)): 98.7%
- residual activity (ACVRL1 (human)): 100%
- residual activity [2]: 106%
- residual activity (DYRK4 (human)): 98.7%
- residual activity (AKT1 (human)): 100%
- residual activity (MAPK8 (human)): 100%
- residual activity (ZAP70 (human)): 105%
- residual activity (STK24 (human)): 93.5%
- residual activity (MAP4K5 (human)): 106%
- residual activity (MERTK (human)): 93%
- residual activity (ITK (human)): 94.8%
- residual activity (MINK1 (human)): 84.6%
- residual activity (FGFR3 (human)): 98.9%
- residual activity (ABL2 (human)): 91.9%
- residual activity (PAK4 (human)): 96.7%
- residual activity (CLK1 (human)): 105%
- residual activity (MAP3K5 (human)): 109%
- residual activity (PTK2B (human)): 95.3%
- residual activity (PHKG1 (human)): 90.3%
- residual activity (DYRK2 (human)): 77.5%
- residual activity (CDK2 CCNA2 (human)): 99.7%
- residual activity (STK11 (human)): 90.7%
- residual activity [3]: 101%
- residual activity (RPS6KA6 KD1 KD2 (human)): 112%
- residual activity (MAPK3 (human)): 98.9%
- residual activity (GRK7 (human)): 98.4%
- residual activity (WNK2 (human)): 96.9%
- residual activity (MAPK14 (human)): 104%
- residual activity (NUAK1 (human)): 94.8%
- residual activity (STK10 (human)): 93.7%
- residual activity (FRK (human)): 106%
- residual activity (STK25 (human)): 117%
- residual activity (FGFR1 (human)): 92.7%
- residual activity (CAMK2A (human)): 104%
- residual activity (BRSK1 (human)): 90.3%
- residual activity (NEK2 (human)): 106%
